Experimental data taken from patent US5665555A, “Method of determining the effect of a test substance on a clone of a Centroptilum triangulifer mayfly” (priority 1993, dated 1997).
Entries after “also recorded” stand apart in the source; their conditions may differ.

System: adult C. triangulifer
Experiment: Chlordane residue (body burden), relative composition and metabolism in adult C. triangulifer by ECNI-MS
Assay type: in vivo, Centroptilum triangulifer (WCC 2 clone)
Settings: for bioaccumulation in C. triangulifer: in vivo; for relative composition of principal chlordane components or metabolites in mayflies: reared at 4.3 μg/l chlordane; for metabolism by C. triangulifer: 4.3 μg/l technical chlordane; for amount of cis- and trans-chlordane relative to the nonachlors in C. triangulifer: compared to original distribution in technical chlordane
Method: Surviving C. triangulifer individuals from the various controls and treatment groups were collected daily as subimagos (pre-adults) from emergence cages. Most subimagos emerging from a given vessel were immediately killed, measured, dried, and weighed. The viability of eggs obtained from females that had been chronically exposed as larvae to the various control and treatment conditions was also assessed. Thus, a few subimagos from certain treatments were kept alive for 24 h (n=8, 5, 8, 6, 10, and 6 for the 4.3, 9.4, 15.4, 27.4, and 56.3 μg/l and control groups, respectively), during which time they molted to the adult stage and were allowed to oviposit into individual glass jars for assessing hatch success as described above. A few adults from the 4.3 μg/l group were frozen intact at […] for later analysis for chlordane residue by electron capture negative ionization mass spectrometry (ECNI-MS). Chiordane residue in adults reared as larvae in 0.005, 0.05, and 0.5 μg/l treatments was also determined.
Chlordane was extracted from water samples by liquid-liquid extraction in a separatory funnel with three aliquots of hexane. PCB204 (2,2',3,4,4',5,6,6'-octachlorobiphenyl) was added as a surrogate standard before extraction. Each hexane aliquot was rinsed into the plastic sample bottle after transfer of the water sample and before its addition to the separatory funnel containing the water sample to ensure removal of chlordane adsorbed on the walls. The three hexane aliquots were combined and evaporated with a rotary evaporator and then further evaporated down to 100 μl under nitrogen for the final step. Chlordane components and metabolites were quantified from the relative responses of the surrogate standard and the authentic standards of heptachlor; trans- and cis-chlordane; trans- and cis-nonachlor; and the two metabolites, heptachlor epoxide and oxychlordane (n.b. cis-nonachlor was estimated from the response factor for trans-nonachlor). Adult body burdens and water concentrations of chlordane residue were calculated by comparison of the component areas with that of the surrogate standard to correct for losses during extraction and purification.
Adult mayflies from a given replicate vessel per treatment were dried and combined in lots of five to thirteen organisms for extraction and analysis. The mayflies were ground in 0.5 ml methanol after addition of the surrogate standard PCB204 and extracted by sonication with two 10 ml aliquots of a 1:1 methanol:methylene chloride mixture. Extracts were filtered through pasteur pipettes loaded with approximately 1.0 g of Na2 SO4 and clean glass wool. Chlordane components and the surrogate standard were separated from other components in the extract on 1% deactivated silica (0.8 g) microcolumns (organochlorines were eluted with 20% methylene chloride in hexane).
Five principal chlordane components and two metabolites (heptachlor, cis- and trans-chlordane, cis- and trans-nonachlor, heptachlor epoxide, and oxychlordane) were identified and quantified by ECNI-MS, using a Hewlett Packard 5988/RTE-A mass spectrometer equipped with a Hewlett Packard 5890 GC. Instrumental conditions were: GC -0.25 mm, 30 m DB-5 column (J & W Scientific) held at 60° C. for 2 min, then ramped to 180° C. at 20°/min, to 230° C. at 2°/min, to 280° C. at 10°/min, and then held at 280° C. for 10 min; MS-CH4 pressure 0.45 torr, source temperature 100° C.

| Structure (SMILES) | bioaccumulation in C. triangulifer | relative composition of principal chlordane components or metabolites in mayflies | metabolism by C. triangulifer | amount of cis- and trans-chlordane relative to the nonachlors in C. triangulifer | ratio of trans-nonachlor to cis-nonachlor in C. triangulifer (range) |
| --- | --- | --- | --- | --- | --- |
| ClC1=C(Cl)[C@]2(Cl)[C@H]3[C@H]([C@@H](Cl)[C@]4(Cl)O[C@H]34)[C@@]1(Cl)C2(Cl)Cl [oxychlordane] | clear trend for the C. triangulifer mayfly to bioaccumulate | 21±13% | – | – | – |
| ClC1=C(Cl)C2(Cl)C3C4OC4C(Cl)C3C1(Cl)C2(Cl)Cl (stereo not drawn) [heptachlor epoxide] | clear trend for the C. triangulifer mayfly to bioaccumulate | 18±7% | – | – | – |
| ClC1=C(Cl)[C@]2(Cl)[C@@H]3C[C@H](Cl)[C@@H](Cl)[C@@H]3[C@@]1(Cl)C2(Cl)Cl (relative stereo) [trans-chlordane] | – | 5±3% | metabolized in part to oxychlordane; also recorded: capable of metabolizing or excreting both isomers equally | Reduced quantities | – |
| ClC1=C(Cl)[C@]2(Cl)[C@@H]3[C@@H](Cl)[C@H](Cl)[C@@H](Cl)[C@@H]3[C@@]1(Cl)C2(Cl)Cl [trans-nonachlor] | clear trend for the C. triangulifer mayfly to bioaccumulate | 45±11% | poorly metabolized | – | 6.2-8.6 |
| ClC1=C(Cl)[C@]2(Cl)[C@@H]3C[C@@H](Cl)[C@@H](Cl)[C@@H]3[C@@]1(Cl)C2(Cl)Cl (relative stereo) [cis-chlordane] | – | 4±3% | metabolized in part to oxychlordane; also recorded: capable of metabolizing or excreting both isomers equally | Reduced quantities | – |
| ClC1=C(Cl)[C@]2(Cl)[C@@H]3[C@@H](Cl)[C@@H](Cl)[C@@H](Cl)[C@@H]3[C@@]1(Cl)C2(Cl)Cl [cis-nonachlor] | clear trend for the C. triangulifer mayfly to bioaccumulate | 6±2% | poorly metabolized | – | – |
| ClC1=C(Cl)C2(Cl)C3C(Cl)C=CC3C1(Cl)C2(Cl)Cl (stereo not drawn) [heptachlor] | – | – | completely metabolize | – | – |
